Reference: patent publication US11725010B2, “Polyheterocyclic compounds as METTL3 inhibitors” (Storm Therapeutics Limited, priority 2019, dated 2023)
pIC50: −log10 of the molar value. Read-outs that look alike come from different tables or passages of the source.

Columns and labels:
METTL3/14 = METTL3/14 (Homo sapiens (Human), UniProt Q86U44)
Caov-3 cells = assay: Caov3 CTG proliferation assay; type: cell-based; conditions: Homo sapiens; for pIC50: Caov-3, treated for 120 hours, CellTiter-Glo luminescence, read-out: Caov3 cells IC50; for IC50: Caov-3, 120 h, read-out: Caov3 cells IC50 nM
Method: CTG Assay (Caov3 Cell Line)
Upon treatment, Coav-3 cells were incubated for 10 min at RT with the CellTiter-Glo reagent (G7571, Promega). Measurement of the luminescence signal was performed on a microplate reader (Ensight, PerkinElmer).
Caov3 CTG Assay—Proliferation Assay

Chain of METTL3/14 (Q86U44 whole entry): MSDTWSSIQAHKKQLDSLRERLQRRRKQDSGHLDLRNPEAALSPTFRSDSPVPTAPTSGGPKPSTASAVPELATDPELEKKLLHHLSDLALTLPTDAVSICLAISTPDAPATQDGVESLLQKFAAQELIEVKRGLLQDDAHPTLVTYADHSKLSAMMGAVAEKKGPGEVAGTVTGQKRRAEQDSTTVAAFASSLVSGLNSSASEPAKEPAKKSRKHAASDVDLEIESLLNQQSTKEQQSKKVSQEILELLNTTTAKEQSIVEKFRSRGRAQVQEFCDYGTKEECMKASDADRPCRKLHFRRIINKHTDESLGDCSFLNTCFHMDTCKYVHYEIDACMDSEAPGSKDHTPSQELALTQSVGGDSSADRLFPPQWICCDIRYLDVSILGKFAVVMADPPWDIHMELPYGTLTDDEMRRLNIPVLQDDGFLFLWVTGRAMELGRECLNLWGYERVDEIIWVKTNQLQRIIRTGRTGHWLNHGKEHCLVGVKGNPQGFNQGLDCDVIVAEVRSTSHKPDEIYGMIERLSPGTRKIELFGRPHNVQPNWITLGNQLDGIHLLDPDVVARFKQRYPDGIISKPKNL
Chain of METTL3/14 (Q9HCE5 whole entry partner): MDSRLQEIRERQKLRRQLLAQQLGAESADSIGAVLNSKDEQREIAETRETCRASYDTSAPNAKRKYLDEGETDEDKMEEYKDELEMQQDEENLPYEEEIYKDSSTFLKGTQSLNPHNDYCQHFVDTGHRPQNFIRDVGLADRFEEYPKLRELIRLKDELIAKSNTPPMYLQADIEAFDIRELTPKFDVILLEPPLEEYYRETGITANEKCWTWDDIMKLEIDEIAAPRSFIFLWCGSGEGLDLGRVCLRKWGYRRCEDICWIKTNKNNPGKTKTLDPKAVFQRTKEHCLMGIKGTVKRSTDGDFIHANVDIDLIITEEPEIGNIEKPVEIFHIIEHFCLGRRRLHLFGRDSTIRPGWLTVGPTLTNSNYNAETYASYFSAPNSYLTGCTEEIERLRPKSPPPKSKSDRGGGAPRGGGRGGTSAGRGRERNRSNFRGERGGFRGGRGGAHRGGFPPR

| SMILES | pIC50 (METTL3/14) | pIC50 (Caov-3 cells) | IC50 (Caov-3 cells) |
| --- | --- | --- | --- |
| O=C(NCc1ccc2cc(CNCC3CC(F)(F)C3)[nH]c2c1)c1cc(=O)n2ccccc2n1 [Compound 3, N-[[2-[[(3,3-difluorocyclobutyl)methylamino]methyl]-1H-indol-6-yl]methyl]-4-oxo-pyrido[1,2-a]pyrimidine-2-carboxamide] | 8.21 | – | – |
| O=C(NCc1ccc2cc(CNCC3(O)CCC3)[nH]c2c1)c1cc(=O)n2ccccc2n1 [Compound 4, N-[[2-[[(1-hydroxycyclobutyl)methylamino]methyl]-1H-indol-6-yl]methyl]-4-oxo-pyrido[1,2-a]pyrimidine-2-carboxamide] | 8.21 | – | – |
| O=C(NCc1ccc2cc(CNC34CC5CC(CC(C5)C3)C4)[nH]c2c1)c1cc(=O)n2ccccc2n1 [Compound 11, N-[[2-[(1-adamantylamino)methyl]-1H-indol-6-yl]methyl]-4-oxo-pyrido[1,2-a]pyrimidine-2-carboxamide] | 8.21 | 6.22 | – |
| O=C(NCc1ccc2cc(CNCC3(O)CCCC3)[nH]c2c1)c1cc(=O)n2ccccc2n1 [Compound 15, N-[[2-[[(1-hydroxycyclopentyl)methylamino]methyl]-1H-indol-6-yl]methyl]-4-oxo-pyrido[1,2-a]pyrimidine-2-carboxamide] | 8.21 | 6.18 | – |
| O=C(NCc1ccc2cc(CN3CC4CCC3CC4)[nH]c2c1)c1cc(=O)n2ccccc2n1 [Compound 21, N-[[2-(2-azabicyclo[2.2.2]octan-2-ylmethyl)-1H-indol-6-yl]methyl]-4-oxo-pyrido[1,2-a]pyrimidine-2-carboxamide] | – | 6.13 | – |
| O=C(NCc1ccc2cc(CNCC3(O)CCCCC3)[nH]c2c1)c1cc(=O)n2ccccc2n1 [Compound 25, N-[[2-[[(1-hydroxycyclohexyl)methylamino]methyl]-1H-indol-6-yl]methyl]-4-oxo-pyrido[1,2-a]pyrimidine-2-carboxamide] | – | 6.14 | – |
| O=C(NCc1ccc2cc(CNC3CCCC3)[nH]c2c1)c1cc(=O)n2ccccc2n1 [Compound 26, N-[[2-[(cyclopentylamino)methyl]-1H-indol-6-yl]methyl]-4-oxo-pyrido[1,2-a]pyrimidine-2-carboxamide] | 8.21 | 6.56 | – |
| O=C(NCc1ccc2cc(CNCC3CCCC3)[nH]c2c1)c1cc(=O)n2ccccc2n1 [Compound 27, N-[[2-[(cyclopentylmethylamino)methyl]-1H-indol-6-yl]methyl]-4-oxo-pyrido[1,2-a]pyrimidine-2-carboxamide] | 8.21 | 6.38 | – |
| O=C(NCc1ccc2cc(CNC3CCCCC3)[nH]c2c1)c1cc(=O)n2ccccc2n1 [Compound 30, N-[[2-[(cyclohexylamino)methyl]-1H-indol-6-yl]methyl]-4-oxo-pyrido[1,2-a]pyrimidine-2-carboxamide] | 8.21 | – | – |
| CC(C)(C)CNCc1cc2ccc(CNC(=O)c3cc(=O)n4ccccc4n3)cc2[nH]1 [Compound 34, N-[[2-[(2,2-dimethylpropylamino)methyl]-1H-indol-6-yl]methyl]-4-oxo-pyrido[1,2-a]pyrimidine-2-carboxamide] | 8.21 | 6.01 | – |
| O=C(NCc1ccc2cc(CN[C@H]3CCC[C@@H]3O)[nH]c2c1)c1cc(=O)n2ccccc2n1 [Compound 36, N-{[2-({[(1S,2S)-2-hydroxycyclopentyl]amino}methyl)-1H-indol-6-yl]methyl}-4-oxo-4H-pyrido[1,2-a]pyrimidine-2-carboxamide] | 8.21 | – | 973 nM |
| O[C@@H]1CCC[C@@H]1NCc1cc2ccc(Cn3cc(-c4cccc5[nH]ncc45)nn3)cc2[nH]1 [Compound 54, (1R,2S)-2-[[6-[[4-(1H-indazol-4-yl)triazol-1-yl]methyl]-1H-indol-2-yl]methylamino]cyclopentanol] | – | 6.08 | – |
| c1cc(-c2cn(Cc3ccc4cc(CNC5CCCC5)[nH]c4c3)nn2)c2cn[nH]c2c1 [Compound 55, N-[[6-[[4-(1H-indazol-4-yl)triazol-1-yl]methyl]-1H-indol-2-yl]methyl]cyclopentanamine] | 8.21 | 6.12 | – |
| OC1(CNCc2cc3ccc(Cn4cc(-c5cccc6[nH]ncc56)nn4)cc3[nH]2)CCC1 [Compound 57, 1-[[[6-[[4-(1H-indazol-4-yl)triazol-1-yl]methyl]-1H-indol-2-yl]methylamino]methyl]cyclobutanol] | 8.21 | 5.97 | – |
| O=C(NCc1cnc2cc(CNCC34CC(F)(C3)C4)[nH]c2c1)c1cc(=O)n2ccccc2n1 [Compound 127, N-[(2-{[({3-fluorobicyclo[1.1.1]pentan-1-yl}methyl)amino]methyl}-1H-pyrrolo[3,2-b]pyridin-6-yl)methyl]-4-oxo-4H-pyrido[1,2-a]pyrimidine-2-carboxamide] | 8.21 | 6.21 | – |
| CC1(C)CCN(Cc2cc3ccc(CNC(=O)c4cc(=O)n5ccccc5n4)cc3[nH]2)CC1 [Example 1, N-({2-[(4,4-dimethylpiperidin-1-yl)methyl]-1H-indol-6-yl}methyl)-4-oxo-4H-pyrido[1,2-a]pyrimidine-2-carboxamide] | – | 6.59 | – |
| CC1(CNCc2cc3ccc(CNC(=O)c4cc(=O)n5ccccc5n4)cc3[nH]2)CC1 [Example 6, N-[[2-[[(1-methylcyclopropyl)methylamino]methyl]-1H-indol-6-yl]methyl]-4-oxo-pyrido[1,2-a]pyrimidine-2-carboxamide] | 8.21 | 6.12 | – |
| O=C(NCc1cnc2cc(CNCC3CCC3)[nH]c2c1)c1cc(=O)n2ccccc2n1 [Example 49, N-[[2-[(cyclobutylmethylamino)methyl]-1H-pyrrolo[3,2-b]pyridin-6-yl]methyl]-4-oxo-pyrido[1,2-a]pyrimidine-2-carboxamide] | – | – | 1060 nM |
| c1cc(-c2cn(Cc3ccc4cc(CNCC5CCC5)[nH]c4c3)cn2)c2cn[nH]c2c1 [Example 64, N-(cyclobutylmethyl)-1-[6-[[4-(1H-indazol-4-yl)imidazol-1-yl]methyl]-1H-indol-2-yl]methanamine] | – | 6.04 | – |
| c1cc(-c2nsc(Cc3ccc4cc(CNCC5CCC5)[nH]c4c3)n2)c2cn[nH]c2c1 [Example 65] | 4.79 | – | – |
| c1cc2cc(-c3cn(Cc4ccc5cc(CNCC6CCC6)[nH]c5c4)cn3)cnc2[nH]1 [Example 134, (cyclobutylmethyl)({6-[(4-{1H-pyrrolo[2,3-b]pyridin-5-yl}-1H-imidazol-1-yl)methyl]-1H-indol-2-yl}methyl)amine] | 8.21 | – | – |
| c1cc(-c2cn(Cc3ccc4cc(CNCC5CCC5)[nH]c4c3)nn2)c2cncn2c1 [Example 135, (cyclobutylmethyl)({6-[(4-{imidazo[1,5-a]pyridin-8-yl}-1H-1,2,3-triazol-1-yl)methyl]-1H-indol-2-yl}methyl)amine] | – | 6.57 | – |
| c1cc2cc(-c3cn(Cc4ccc5cc(CNCC6CCC6)[nH]c5c4)nn3)cnc2[nH]1 [Example 138, (cyclobutylmethyl)({6-[(4-{1H-pyrrolo[2,3-b]pyridin-5-yl}-1H-1,2,3-triazol-1-yl)methyl]-1H-indol-2-yl}methyl)amine] | 8.21 | – | – |
| COc1cnc(C#N)c(-c2cn(Cc3ccc4cc(CNCC56CC(C5)C6)[nH]c4c3)nn2)c1 [Example 148, 3-[1-({2-[({(Bicyclo [1.1.1]pent-1-yl)methyl}amino)methyl]-1H-indol-6-yl}methyl)-1H-1,2,3-triazol-4-yl]-5-methoxy-2-pyridine-carbonitrile] | > 8.21 | – | – |
